According to patent US7449553B2, “Antibody that binds ceramidase” (Takara Bio Inc., priority 1999, dated 2008):

Molecular target: T1, neutral/alkaline ceramidase derived from a mouse liver (Mus musculus, UniProt Q9JHE3)
T1 construct: the ceramidase purified from the mouse liver lacked the peptide of the N-terminal portion of the polypeptides encoded by the above-mentioned ORF; from tissue; host or cells: mouse liver (membrane fraction, purified by chromatography)
Experiment: Substrate specificity of the ceramidase (degradation of 14C-labeled sphingolipids, TLC)
Format: biochemical
Details: for Degradation Ratio (%): 5 milliunits ceramidase on 100 pmol 14C-labeled sphingolipid, 25 mM Tris-HCl pH 7.5, 1% sodium cholate, 37° C., 24 hours; for Substrate specificity (in words): as shown in Table 1
Description: Five milliunits of the ceramidase of the present invention is acted on 100 pmol of various kinds of sphingolipids, in which the fatty acid moiety is labeled with ^14C-radioactive isotope, in […] of 25 mM Tris-hydrochloric acid buffer, pH 7.5, containing 1% sodium cholate at 37° C. for 24 hours. The reaction mixture is developed on silica gel thin layer chromatography. Thereafter, the ^14C-labeled sphingolipids and the ^14C-labeled fatty acids generated by the enzymatic reaction are detected and quantified by Imaging Analyzer BAS1000 (manufactured by Fuji Photo Film). The degradation ratio is calculated from the obtained values.

T1 sequence (Q9JHE3 75-756): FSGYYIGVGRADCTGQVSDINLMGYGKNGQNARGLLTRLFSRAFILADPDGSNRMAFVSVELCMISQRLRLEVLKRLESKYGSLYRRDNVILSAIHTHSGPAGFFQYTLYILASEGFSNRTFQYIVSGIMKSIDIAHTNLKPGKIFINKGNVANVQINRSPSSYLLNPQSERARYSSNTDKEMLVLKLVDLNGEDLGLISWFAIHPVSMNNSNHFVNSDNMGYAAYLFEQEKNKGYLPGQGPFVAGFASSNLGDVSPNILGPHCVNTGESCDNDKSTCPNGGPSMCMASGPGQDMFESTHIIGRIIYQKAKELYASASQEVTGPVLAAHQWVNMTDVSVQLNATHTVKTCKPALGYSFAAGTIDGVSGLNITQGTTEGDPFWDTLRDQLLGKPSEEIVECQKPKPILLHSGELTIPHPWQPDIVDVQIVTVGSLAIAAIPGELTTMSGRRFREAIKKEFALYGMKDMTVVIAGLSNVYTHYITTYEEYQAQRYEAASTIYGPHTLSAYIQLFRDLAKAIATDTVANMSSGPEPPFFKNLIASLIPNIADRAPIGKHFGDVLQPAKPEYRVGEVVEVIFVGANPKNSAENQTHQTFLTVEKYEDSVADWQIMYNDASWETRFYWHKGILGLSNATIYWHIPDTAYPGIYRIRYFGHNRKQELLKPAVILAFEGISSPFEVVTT

| Compound | Degradation Ratio (%) | Substrate specificity (in words) |
| --- | --- | --- |
| CCCCCCCCCCCCCCCC(=O)N[C@@H](CO)[C@H](O)CCCCCCCCCCCCCCC [N-Palmitoylsphinganine] | 59 |  |
| CCCCCCCCCCCCC/C=C/[C@@H](O)[C@H](CO)NC(=O)CCCCCCCCCCCNc1ccc([N+](=O)[O-])c2nonc12 [12-((N-(7-nitrobenz-2-oxa-1,3-diazol-4-yl)amino)dodecanoyl)sphingosine] | 97 |  |
| CCCCCCCCCCCCC/C=C/[C@@H](O)[C@H](CO)NC(=O)CCCCCNc1ccc([N+](=O)[O-])c2nonc12 [6-((N-(7-nitrobenz-2-oxa-1,3-diazole-4-yl)amino)hexanoyl)sphingosine] | 2 |  |
| CCCCCCCCCCCCC/C=C/[C@@H](O)[C@H](CO)NC(=O)CCCCCCCCCCC [N-Lauroylsphingosine] | 63 |  |
| CCCCCCCCCCCCCCCCCC(=O)N[C@@H](CO)[C@H](O)CCCCCCCCCCCCCCC [N-Stearoylsphinganine] | 40 |  |
| Sphingomyelin | 0 | not acting |
| Galb1-3GalNAcb1-4(NeuAca2-3)Galb1-4G1cb1-1′Cer [GM1a] | 0 | not acting |
| CCCCCCCCCCCCCCCCCC(=O)N[C@@H](CO)[C@H](O)[C@H](O)CCCCCCCCCCCCCC [N-Stearoylphytosphingosine] | 2 |  |
| Sulfatide | 0 | not acting |
| Galactosylceramide | 0 | not acting |
| CCCCCCCCCCCCC/C=C/[C@@H](O)[C@H](CO)NC(=O)CCCCCCCCCCCCCCCCC [N-Stearoylsphingosine] | 83 |  |
| CCCCCCCCCCCCCCCC(=O)N[C@@H](CO)[C@H](O)[C@H](O)CCCCCCCCCCCCCC [N-Palmitoylphytosphingosine] | 5 |  |
| CCCCCCCCCCCCC/C=C/[C@@H](O)[C@H](CO)NC(=O)CCCCCCCCCCCCCCC [N-Palmitoylsphingosine] | 93 |  |
